Test results reported in patent US5652250A, “N-substituted β-aryl- and β-heteroaryl-α-cyanoacrylamide derivatives and process for their preparation” (Pharmacia S.p.A., priority 1994, dated 1997).

Columns and labels:
[1] = target: p45 v-abl tyrosine kinase; test: p45 v-abl Kinase Assay ((Val^5)-Angiotensin II phosphorylation); assay type: biochemical, Abelson murine leukemia virus; details: (Val^5)-Angiotensin II 2 mM, ATP 50 μM, pH 8.0, 30° C., read-out: Inhibition of p45 v-abl kinase IC50
Experimental: The enzyme used in our test was the p45 v-abl tyrosine kinase which represents the catalytic domain of the Abelson tyrosine kinase (isolated from the Abelson murine leukemia virus). The p45 v-abl kinase was produced and isolated as described by Wang et al. in J. Biol. Chem. 260, 64 (1985) and by Ferguson et al. in J. Biol. Chem. 260, 3652 (1985) and in Biochem. J. 257, 321 (1989).
(Val^5)-Angiotensin II phosphorylation was performed by incubation with 40 ng of purified abl-kinase and (γ^32 P)-ATP, in 50 μl of buffer containing Tris-HCl 25 mM, pH 8.0, MgCl2 10 mM and dithiothreitol 0.1 mM (kinase buffer). The reaction mixture was incubated for the indicated time at 30° C. and the reaction stopped by adding 50 μl of 5% trichloroacetic acid. After a brief incubation on ice, tubes were centrifuged. The supernatants were spotted on phosphocellulose paper squares (Whatman P-81) and washed extensively in acetic acid. The radioactivity bound to dried phosphocellulose squares was measured in a liquid scintillation counter. IC50 values were calculated from triplicate determinations of each experimental point. Each inhibitor was tested at concentrations ranging from […] in the presence of fixed concentrations of peptide (2 mM) and ATP (50 μM).

K562 cells = test: K562 Cell Growth Inhibition Assay; assay type: cell-based; details: K562 human myelogenous leukemia cells, 72 h
Experimental: K562 cells, a human myelogenous leukemia cell line, were seeded into a 24 wells tissue culture plate (Falcon 3047) (10000/well) in the presence of increasing concentrations of the compounds. After 72 h, cells were harvested and were counted using a cell counter (Coulter Counter--ZM). The percent of inhibition was evaluated in respect to the untreated control cells.

N#CC(=Cc1ccc(O)c2ncccc12)C(=O)Nc1ccccc1 [N-phenyl β-(8-hydroxy-5-quinolyl)-α-cyanoacrylamide]
IC50 [1]: 3400 nM
IC50 (K562 cells): 660 nM
